Results on one molecule are retold here after publication PMC8062851, “2-Methoxyestradiol and its derivatives inhibit store-operated Ca^2+ entry in T cells: Identification of a new and potent inhibitor” (Biochimica et Biophysica Acta. Molecular Cell Research, 2021).

Entries after “also recorded” stand apart in the source; their conditions may differ.

For assay [1], the system named is alpha-dendrotoxin sensitive KV channels, likely KV1.1, KV1.2 and/or KV1.6. The note with it: 10 μM; ref Di Sabatino et al. [36]; cited from earlier work.
Assay [2] concerns the target T1, ORAI1 (Homo sapiens, UniProt Q96D31).
T1 construct: host or cells: Jurkat T-lymphocytes (electroporation)
Description: Live cell Ca2+ imaging of G-GECO1.2-ORAI1 transfected Jurkat T cells. The note with it: 10 μM. In kind it is cell-based. The protocol:
12.5 ∗ 10^6 Jurkat T–lymphocytes were pelleted at 400 to 450 ×g for 5 min at room temperature and pellets were dissolved in 500 μl RPMI 1640 medium (Gibco) without phenol red containing L-glutamine, supplemented with 7.5% (v/v) NCS. 30 μg plasmid-DNA (G-GECO1.2-ORAI1) was transferred into a 4 mm electroporation cuvette (Biozym, Austria) and the Jurkat T-lymphocytes were added. G-GECO1.2-ORAI1 was a gift from Michael Cahalan, USA (Addgene plasmid # 73562). After an incubation of 5 min at 37 °C, cells were electroporated with 960 μF and 240 V (τ: […]). […]
17 to 22 h after electroporation, 5 ∗ 10^4 cells were pelleted at 400–450 ×g for 5 min at room temperature and cell pellets were dissolved in 50 μl nominal Ca^2+ free buffer. […] The fluorophore was excited at 488 nm every 2 s for 30 min and fluorescence was measured at 520 nm using Volocity (Version 6.3, Perkin Elmer).
Using ImageJ (Version 1.51 k, National Institutes of Health, USA) the pictures were analyzed for mean fluorescence in the outer ring of Jurkat T-lymphocytes employing ring-shaped regions of interest (ROIs). […] The mean background fluorescence values were subtracted from the signal in every image. For quantitative analysis, fluorescence intensities were normalized to the first fluorescence intensity (F/F0).

For assay [3], the system named is KV1.3 channels. Also on record: method as in patent WO2005/009954A2 (compound 66). Particulars: ref patent WO2005/009954A2 (compound 66); cited from earlier work.
Assay [4] concerns IP3 receptors. Description: IP3-evoked Ca2+ release in permeabilized Jurkat T cells. In kind it is cell-based, human. Particulars: 2 μM IP3. The protocol:
(§1) 3 ∗ 10^7 Jurkat T-lymphocytes per measurement were centrifuged at 450 ×g for 5 min at room temperature. The pellet was rinsed twice, each time using 10 ml permeabilization buffer 1 (120 mM KCl, 10 mM NaCl, 1.2 mM MgCl2, 0.533 mM CaCl2, 1 mM EGTA and 10 mM HEPES, pH 7.2 (KOH), sterile filtered). Subsequently, the pellet was resuspended in 2 ml permeabilization buffer 1 containing 80 μg/ml saponin (Fluka) and the cells were incubated for 10 min at 37 °C. Subsequently, the cells were centrifuged at 450 ×g for 5 min at room temperature and the cell pellet was washed once in 10 ml permeabilization buffer 2 (120 mM KCl, 10 mM NaCl, 1.2 mM MgCl2 and 10 mM HEPES, pH 7.2 (KOH), sterile filtered). Finally, the cells were taken up in 1 ml permeabilization buffer 2, placed into a cuvette and measured at the fluorescence spectrophotometer. Before the start of the measurement, 0.5 μl of 1 mM Fura2 free acid (dissolved in pure water, final concentration: 0.5 μM), 5 μl of 5 mg/ml creatinkinase (dissolved in permeabilization buffer 2, final concentration: 25 μg/ml, 20 U/ml, Roche) and 10 μl of 2 M creatin phosphate (dissolved in permeabilization buffer 2, final concentration: 20 mM, Calbiochem) were added. Fura2 was used to measure the Ca^2+ concentration and creatinkinase and creatin phosphate were used as ATP-regenerating system. The measurement was controlled by FL Solutions (Version 4.1, Hitachi High-Technologies Corporation). Fura2 was alternatively excited every 2 s at 340 ± 5 nm and 380 ± 5 nm, each 400 ms apart. Fluorescence intensity was measured at an emission wavelength of 495 ± 5 nm for both excitation wavelengths. […] Ca^2+ concentrations were calculated according to Grynkiewicz et al. as described earlier in Section 2.4.
(§2) As a quantitative read-out for inhibition of IP3 receptors, the peak [Ca^2+] after IP3 addition was subtracted from the mean [Ca^2+] between 25 and 75 s before IP3 addition (dPeak). […] The rate constant K of the fitted data was used as a quantitative read-out for SERCA pump activity and its inhibition.

The subject of assay [5] is TMBP cells. Description: In vitro activation of TMBP cells by MBP, cytokine mRNA by qPCR. The class given is cell-based, rat. The note with it: TMBP cells + MBP; 6 h; qPCR; STX564 vs Synta66. The protocol:
Myelin basic protein (MBP)-reactive CD4^+ T cells retrovirally transduced to express enhanced GFP (TMBP cells) were established as previously reported. In brief, 6–8 week old female Lewis rats were immunized subcutaneously with 150 μl of emulsion consisting of equal parts of MBP (stock concentration: 1 mg/ml) and complete Freund's adjuvant containing heat-inactivated Mycobacterium tuberculosis extract (Difco; stock concentration: 2 mg/ml). Draining lymph nodes were harvested and passed through a cell strainer (40 μm) 9–10 days after immunization. The cell suspension was co-cultured with GP + E86 packaging cell lines producing replication-deficient retroviruses in the presence of 10 μg/ml MBP. Murine IL-2 was added to the culture for T cell expansion from day 2–4 after stimulation. The cell lines underwent 3–4 cycles of stimulation before being used for in vitro and in vivo experiments. […] Upon stimulation, they produced interferon-γ and IL-17.
In vitro activation assays were performed in 96-well plates. […]. TMBP cell activation on mRNA level was determined using qPCR and on surface protein level using surface marker staining and subsequent flow cytometry analysis.
Total RNA was isolated using the standard TRIzol method. cDNA was synthesized using the RevertAid First Strand cDNA Synthesis Kit (Thermo Fisher Scientific). Quantitative PCR (qPCR) was performed using the StepOnePlus™ Real-Time PCR System (Applied Biosystems), as previously described [[23], [24], [25]]. Rat TMBP cell data were obtained from three to four independent duplicate measurements. β-actin served as housekeeping gene. Human PBMC data were obtained from two independent healthy donors and duplicate measurements (representative data of one donor are shown). HPRT served as housekeeping gene. For all probes (TaqMan), a combination of 5′-FAM and 3′-TAMRA quencher was used as described.
(Quantitative PCR measures a nucleic acid by following its amplification.)

In assay [6] the test system is SERCA pumps. Nature of the assay: SERCA activity (ATP-induced Ca2+ reuptake) in permeabilized Jurkat T cells. In kind it is cell-based, human. On the procedure:
as §1, §2

T1 sequence (Q96D31 whole entry): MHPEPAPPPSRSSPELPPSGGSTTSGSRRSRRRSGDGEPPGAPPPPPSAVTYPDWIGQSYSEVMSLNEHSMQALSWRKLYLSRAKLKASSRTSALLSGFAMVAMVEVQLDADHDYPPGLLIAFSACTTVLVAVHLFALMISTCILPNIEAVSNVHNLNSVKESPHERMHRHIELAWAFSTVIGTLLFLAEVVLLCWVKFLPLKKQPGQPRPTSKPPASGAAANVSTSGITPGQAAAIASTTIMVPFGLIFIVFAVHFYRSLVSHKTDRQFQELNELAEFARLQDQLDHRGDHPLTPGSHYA

Turning to `COc1ccc(OC)c(-c2ccc(NC(=O)c3ccncc3F)cc2)c1` [Synta66], in assay [1], the “inhibition of alpha-dendrotoxin sensitive KV channels” value was below 10%. Also, the “SOCE by ORAI1 (G-GECO1.2-ORAI1 fluorescence)” value in assay [2] is listed as “almost completely diminished”. For the same molecule, the “inhibition of KV1.3 channels” value in assay [3] was “inhibits KV1.3 channels”. Also, the “effect on IP3-evoked Ca2+ release” value in assay [4] is recorded as “Neither STX564 nor Synta66 affected IP3-evoked Ca^2+ release significantly; also recorded: did not inhibit the Ca^2+ release by IP3”. Further, the “concentration at which interferon-γ expression was significantly antagonized” value in assay [5] is at least 10 µM. The “effect on SERCA activity (initial slope of [Ca2+] upon ATP addition)” value in assay [6] is recorded as “Neither STX564, Synta66 nor vehicle DMSO affected ATP-induced Ca^2+ reuptake by SERCA pumps; also recorded: neither STX564 nor Synta66 showed any effect”.
